The values that follow come from patent US20080274892A1, “Novel Haloalkylsulfonanilide Derivative, Herbicide, and Method of Use Thereof” (priority 2005, published 2008).

The structures appear in SMILES notation.

Series [1] concerns paddy rice plant (cultivar: Nihonbare). The experiment in a line: Test Example 3: phytotoxicity test for transplanted paddy rice plant. The class given is in vivo. To be noted: dosage 1000 g/ha; transplanted rice, treated 5 days after transplantation; 21 days after treatment. A digest of the protocol:
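Clay loam soil was placed in a 75 cm^2 plastic pot and flooded to a water depth of 5 cm. Two Nihonbare paddy rice plants at the two-leaf stage were transplanted 1 cm deep and grown in a hot house. After treatment, pots stayed in the hot house for 21 days, and phytotoxicity was then graded against an untreated control.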

Series [2] deals with false pimpernel. The experiment in a line: Test Example 2: herbicidal efficacy on rice paddy weeds post-emergence. Type of series: in vivo, Lindernia pyxidaria. To be noted: dosage 1000 g/ha; post-emergence, one leaf stage; 21 days after treatment.
The next series relates to barnyard glass. The series is described as above. The class given is in vivo, Echinochloa crus-galli. Conditions: dosage 1000 g/ha; post-emergence, one leaf stage; 21 days after treatment. A digest of the protocol: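 Plastic pots of 75 cm^2 were filled with clay loam soil and sown with barnyard glass and bulrush seeds, then topped with 75 cm^3 soil containing false pimpernel seeds. The pots were flooded to 5 cm water depth and held in a hot house. Twenty-one days after treatment, herbicidal efficacy was graded against an untreated control.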

Series [3] has as its system bulrush. The description is as above. The class given is in vivo, Scirpus juncoides. Conditions: dosage 1000 g/ha; post-emergence, one leaf stage; 21 days after treatment.
Series [4] concerns bulrush. The series can be described thus: Test Example 1: herbicidal efficacy on rice paddy weeds pre-emergence. The class given is in vivo, Scirpus juncoides. To be noted: dosage 1000 g/ha, 21 days.
In series [5] the test system is false pimpernel. Described as above. The class given is in vivo, Lindernia pyxidaria. To be noted: dosage 1000 g/ha, 21 days.
The subject of series [6] is transplanted paddy rice plant and Bulrush. The experiment in a line: Test Example 5: selectivity between transplanted paddy rice plant and weeds. Type of series: in vivo. Conditions: (highest dosage with no phytotoxicity to paddy rice)/(lowest dosage with effective level 4 on Bulrush); rice 3000-100 g/ha, Bulrush 300-10 g/ha; 21 days. A digest of the protocol: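 Transplanted paddy rice was treated at 3000, 1000, 300 and 100 g/ha active ingredient for phytotoxicity, and post-emergence bulrush at 300, 100, 30 and 10 g/ha. Plants were kept in a hothouse for 21 days. Growth inhibition versus untreated control was scored 0–4 (0%, 1–39%, 40–69%, 70–89%, 90–100%).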

The subject of series [7] is bulrush. The series can be described thus: Test Example 4: low dosage test for rice paddy weeds. Type of series: in vivo, Scirpus juncoides. To be noted: 300 g/ha as an active ingredient; plants treated at the one leaf stage; 21 days after treatment; vs untreated control. A digest of the protocol: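 Bulrush sown in clay loam pots, flooded to 5 cm water in a hot house, treated at the one-leaf stage with formulated compound at 300 g/ha. Efficacy scored 0–4 against untreated control 21 days after treatment (4 = 90–100%, 0 = 0% inhibition).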

Turning to `C#CCOC(=O)N(c1ccccc1CN1CC(C)(C)OC1=O)S(=O)(=O)C(F)(F)F` [1-79], the “Phytotoxicity to paddy rice” value in series [1] is reported as 2 (40%-69% of herbicidal efficacy or phytotoxicity). Further, the “False pimpernel post (herbicidal efficacy grade)” value (from here on “False pimpernel post”) with false pimpernel [2] was 4 (90%-100% of herbicidal efficacy or phytotoxicity). For the same molecule, the “Burnyard grass post (herbicidal efficacy grade)” value (from here on “Burnyard grass post”) with barnyard glass was 4 (90%-100% of herbicidal efficacy or phytotoxicity). For the same molecule, in the series on bulrush [3], the “Bulrush post (herbicidal efficacy grade)” value is 4 (90%-100% of herbicidal efficacy or phytotoxicity). In addition, the “Bulrush pre (herbicidal efficacy grade)” value in the series with bulrush [4] was 4 (90%-100% of herbicidal efficacy or phytotoxicity). The “False pimpernel pre (herbicidal efficacy grade)” value (“False pimpernel pre” for short) with false pimpernel [5] is on record as 4 (90%-100% of herbicidal efficacy or phytotoxicity). Moreover, in series [6], the “Selective Index” value is recorded as 10. The “Herbicide effect to Bulrush” value with bulrush [7] is reported as 4 (90%-100% of herbicidal efficacy or phytotoxicity).

Regarding `CCOC(=O)N(c1ccccc1CN1CC(C)(C)OC1=O)S(=O)(=O)C(F)(F)F` [1-80], the “Phytotoxicity to paddy rice” value in series [1] is 2 (40%-69% of herbicidal efficacy or phytotoxicity). Further, in the series with false pimpernel [2], the “False pimpernel post” value is 4 (90%-100% of herbicidal efficacy or phytotoxicity). Also, the “Burnyard grass post” value in the series on barnyard glass was 4 (90%-100% of herbicidal efficacy or phytotoxicity). Besides, in the series on bulrush [3], the “Bulrush post (herbicidal efficacy grade)” value is 4 (90%-100% of herbicidal efficacy or phytotoxicity). For the same molecule, in the series with bulrush [4], the “Bulrush pre (herbicidal efficacy grade)” value is given as 4 (90%-100% of herbicidal efficacy or phytotoxicity). The “False pimpernel pre” value in the series on false pimpernel [5] was 4 (90%-100% of herbicidal efficacy or phytotoxicity). Also, in series [6], the “Selective Index” value was 30. Moreover, the “Herbicide effect to Bulrush” value in the series with bulrush [7] is 4 (90%-100% of herbicidal efficacy or phytotoxicity).

On to `COCCOC(=O)N(c1ccccc1CN1CC(C)(C)OC1=O)S(=O)(=O)C(F)(F)F` [1-81], for which, in series [1], the “Phytotoxicity to paddy rice” value is given as 2 (40%-69% of herbicidal efficacy or phytotoxicity). Besides, in the series on false pimpernel [2], the “False pimpernel post” value is recorded as 4 (90%-100% of herbicidal efficacy or phytotoxicity). For the same molecule, the “Burnyard grass post” value with barnyard glass was 4 (90%-100% of herbicidal efficacy or phytotoxicity). For the same molecule, the “Bulrush post (herbicidal efficacy grade)” value with bulrush [3] is reported as 4 (90%-100% of herbicidal efficacy or phytotoxicity). In the series with bulrush [4], the “Bulrush pre (herbicidal efficacy grade)” value is given as 4 (90%-100% of herbicidal efficacy or phytotoxicity). Moreover, the “False pimpernel pre” value in the series with false pimpernel [5] is listed as 4 (90%-100% of herbicidal efficacy or phytotoxicity). Also, the “Selective Index” value in series [6] was found to be 30. Besides, in the series on bulrush [7], the “Herbicide effect to Bulrush” value was 4 (90%-100% of herbicidal efficacy or phytotoxicity).

Consider `C=CCOC(=O)N(c1ccccc1CN1CC(C)(C)OC1=O)S(=O)(=O)C(F)(F)F` [1-82], for which the “Phytotoxicity to paddy rice” value in series [1] is 2 (40%-69% of herbicidal efficacy or phytotoxicity). Also, the “False pimpernel post” value in the series with false pimpernel [2] is listed as 4 (90%-100% of herbicidal efficacy or phytotoxicity). Further, the “Burnyard grass post” value in the series on barnyard glass is listed as 4 (90%-100% of herbicidal efficacy or phytotoxicity). The “Bulrush post (herbicidal efficacy grade)” value in the series with bulrush [3] is given as 4 (90%-100% of herbicidal efficacy or phytotoxicity). Moreover, the “Bulrush pre (herbicidal efficacy grade)” value in the series on bulrush [4] is 4 (90%-100% of herbicidal efficacy or phytotoxicity). Also, the “False pimpernel pre” value in the series with false pimpernel [5] is 4 (90%-100% of herbicidal efficacy or phytotoxicity). In addition, the “Selective Index” value in series [6] was “≧30”. Further, in the series with bulrush [7], the “Herbicide effect to Bulrush” value is listed as 4 (90%-100% of herbicidal efficacy or phytotoxicity).

As to `CC1(C)CN(Cc2ccccc2N(C(=O)Oc2ccccc2)S(=O)(=O)C(F)(F)F)C(=O)O1` [1-85], the “Phytotoxicity to paddy rice” value in series [1] is given as 2 (40%-69% of herbicidal efficacy or phytotoxicity). In the series with false pimpernel [2], the “False pimpernel post” value is 4 (90%-100% of herbicidal efficacy or phytotoxicity). For the same molecule, the “Burnyard grass post” value with barnyard glass is recorded as 4 (90%-100% of herbicidal efficacy or phytotoxicity). The “Bulrush post (herbicidal efficacy grade)” value with bulrush [3] is 4 (90%-100% of herbicidal efficacy or phytotoxicity). Further, the “Bulrush pre (herbicidal efficacy grade)” value in the series on bulrush [4] is recorded as 4 (90%-100% of herbicidal efficacy or phytotoxicity). Further, the “False pimpernel pre” value with false pimpernel [5] is 4 (90%-100% of herbicidal efficacy or phytotoxicity). Besides, the “Selective Index” value in series [6] amounted to 10. In addition, the “Herbicide effect to Bulrush” value in the series on bulrush [7] is reported as 4 (90%-100% of herbicidal efficacy or phytotoxicity).

Regarding `CC(C)COC(=O)N(c1ccccc1CN1CC2(CCC2)OC1=O)S(=O)(=O)C(F)(F)F` [1-86], the “Phytotoxicity to paddy rice” value in series [1] is listed as 1 (1%-39% of herbicidal efficacy or phytotoxicity). The “False pimpernel post” value in the series with false pimpernel [2] is given as 4 (90%-100% of herbicidal efficacy or phytotoxicity). The “Burnyard grass post” value in the series with barnyard glass is recorded as 4 (90%-100% of herbicidal efficacy or phytotoxicity). The “Bulrush post (herbicidal efficacy grade)” value in the series with bulrush [3] is reported as 4 (90%-100% of herbicidal efficacy or phytotoxicity). In addition, the “Bulrush pre (herbicidal efficacy grade)” value in the series with bulrush [4] is 4 (90%-100% of herbicidal efficacy or phytotoxicity). Further, the “False pimpernel pre” value in the series with false pimpernel [5] was 4 (90%-100% of herbicidal efficacy or phytotoxicity). For the same molecule, the “Selective Index” value in series [6] is 10. In addition, the “Herbicide effect to Bulrush” value with bulrush [7] was 4 (90%-100% of herbicidal efficacy or phytotoxicity).

Take `CC(C)COC(=O)N(c1ccccc1CN1CC2(CC2)OC1=O)S(=O)(=O)C(F)(F)F` [1-89]: the “Phytotoxicity to paddy rice” value in series [1] is reported as 1 (1%-39% of herbicidal efficacy or phytotoxicity). Further, the “False pimpernel post” value in the series with false pimpernel [2] was 4 (90%-100% of herbicidal efficacy or phytotoxicity). In addition, in the series on barnyard glass, the “Burnyard grass post” value is reported as 4 (90%-100% of herbicidal efficacy or phytotoxicity). In addition, the “Bulrush post (herbicidal efficacy grade)” value in the series with bulrush [3] is given as 4 (90%-100% of herbicidal efficacy or phytotoxicity). Moreover, the “Bulrush pre (herbicidal efficacy grade)” value in the series with bulrush [4] was 4 (90%-100% of herbicidal efficacy or phytotoxicity). The “False pimpernel pre” value in the series with false pimpernel [5] is listed as 4 (90%-100% of herbicidal efficacy or phytotoxicity). Moreover, in series [6], the “Selective Index” value was 10. Besides, in the series on bulrush [7], the “Herbicide effect to Bulrush” value was 4 (90%-100% of herbicidal efficacy or phytotoxicity).

On to `CCCOC(=O)N(c1ccccc1CN1CC(C)(CC)OC1=O)S(=O)(=O)C(F)(F)F` (centres unmarked) [1-90], for which the “Phytotoxicity to paddy rice” value in series [1] was 3 (70%-89% of herbicidal efficacy or phytotoxicity). Moreover, the “False pimpernel post” value in the series with false pimpernel [2] is 4 (90%-100% of herbicidal efficacy or phytotoxicity). Moreover, the “Burnyard grass post” value in the series with barnyard glass is recorded as 4 (90%-100% of herbicidal efficacy or phytotoxicity). In addition, in the series with bulrush [3], the “Bulrush post (herbicidal efficacy grade)” value was 4 (90%-100% of herbicidal efficacy or phytotoxicity). In addition, in the series with bulrush [4], the “Bulrush pre (herbicidal efficacy grade)” value is 4 (90%-100% of herbicidal efficacy or phytotoxicity). The “False pimpernel pre” value with false pimpernel [5] is on record as 4 (90%-100% of herbicidal efficacy or phytotoxicity). For the same molecule, in series [6], the “Selective Index” value turned out to be 30. Further, in the series on bulrush [7], the “Herbicide effect to Bulrush” value is on record as 4 (90%-100% of herbicidal efficacy or phytotoxicity).

As to `CCCCCOC(=O)N(c1ccccc1CN1CC(C)(CC)OC1=O)S(=O)(=O)C(F)(F)F` (centres unmarked) [1-91], the “Phytotoxicity to paddy rice” value in series [1] is given as 3 (70%-89% of herbicidal efficacy or phytotoxicity). Moreover, the “False pimpernel post” value in the series with false pimpernel [2] is 4 (90%-100% of herbicidal efficacy or phytotoxicity). In addition, in the series on barnyard glass, the “Burnyard grass post” value was 4 (90%-100% of herbicidal efficacy or phytotoxicity). The “Bulrush post (herbicidal efficacy grade)” value with bulrush [3] was 4 (90%-100% of herbicidal efficacy or phytotoxicity). Moreover, the “Bulrush pre (herbicidal efficacy grade)” value in the series on bulrush [4] is listed as 4 (90%-100% of herbicidal efficacy or phytotoxicity). In the series with false pimpernel [5], the “False pimpernel pre” value is 4 (90%-100% of herbicidal efficacy or phytotoxicity). Besides, the “Selective Index” value in series [6] is reported as 30. The “Herbicide effect to Bulrush” value in the series on bulrush [7] is 4 (90%-100% of herbicidal efficacy or phytotoxicity).

With `CCCCCOC(=O)N(c1ccccc1CN1CC(C)(C)OC1=O)S(=O)(=O)C(F)(F)F` [1-92], in series [1], the “Phytotoxicity to paddy rice” value was 3 (70%-89% of herbicidal efficacy or phytotoxicity). For the same molecule, the “False pimpernel post” value with false pimpernel [2] is recorded as 4 (90%-100% of herbicidal efficacy or phytotoxicity). Moreover, the “Burnyard grass post” value with barnyard glass was 4 (90%-100% of herbicidal efficacy or phytotoxicity). Further, the “Bulrush post (herbicidal efficacy grade)” value with bulrush [3] is 4 (90%-100% of herbicidal efficacy or phytotoxicity). Besides, in the series on bulrush [4], the “Bulrush pre (herbicidal efficacy grade)” value is 4 (90%-100% of herbicidal efficacy or phytotoxicity). The “False pimpernel pre” value in the series on false pimpernel [5] is 4 (90%-100% of herbicidal efficacy or phytotoxicity). In addition, in series [6], the “Selective Index” value came out at 30. In the series with bulrush [7], the “Herbicide effect to Bulrush” value was 4 (90%-100% of herbicidal efficacy or phytotoxicity).
